Consider 1 compound from US20060241067A1, “Methods For inhibiting angiogenesis, cell migration, cell adhesion, and cell survival” (priority 2002, published 2006).

The test system of one test is protein kinase A. The test can be described thus: PKA activity assay in HUVECs. It counts as cell-based, human. The settings on record: for PKA activity in endothelial cells: 10 μM PTHrP or 250 μM dibutyryl cAMP. The method, then: PKA activity was measured in HUVECs essentially as previously described in Kim et al (S. Kim et al., Amer. J. Biol. Chem., 275:33920-33928 (02000)). HUVECs were placed in suspension, allowed to attach to ECM protein coated plates in the absence or presence of anti-integrin antibodies or were treated with 10 μM PTHrP and/or 250 μM cAMP. PKA activity was measured at various times from 0-4 hrs (e.g., 2-30 min).
Plates were washed and blocked in 3% bovine serum albumin for 1 hour at 37° C. HUVECS were trypsinized and resuspended in adhesion buffer (Hanks balanced salt solution supplemented with 10 mM HEPES, pH 7.4, 2 mM MgCl2, 2 mM CaCl2, 0.2 mM MnCl2, 1% BSA. Cells were plated on matrix protein coated plates in culture medium or in the presence of 25 μg/ml anti-α5β1, anti-αvβ3 or anti-α2β1 antibodies for various times from 0 minutes to 4 hours. Plates were washed with phosphate buffered saline and cells were extracted with cold extraction buffer (50 mM Tris, pH 7.5, 5 mM EDTA, 25 μg/ml aprotinin and 25 μg/ml leupeptin). Protein Kinase A activity was assessed using a kit from Gibco BRL. Briefly, equal volumes of lysate and reaction mixture containing final concentrations of 50 mM Tris, pH 7.5, 10 mM MgCl2, 0.25 mg/ml BSA, 50 μM Kemptide (a protein kinase A substrate), 3000 Ci/mmol (γ^32 P) ATP and 100 μM ATP were combined for 5 minutes at 30° C. Total PKA in each sample was measured by performing the assay in the presence of 10 μM cAMP. Background PKA activity in test and total PKA samples were determined by performing the assay in the presence of a PKA inhibitor peptide, PKI (6-22) amide. Twenty μl samples of reaction mixtures were spotted onto phosphocellulose discs and washed repeatedly with 1% (v/v) phosphoric acid in water. Incorporated radioactivity was determined by scintillation counting. Activated PKA was calculated from the ratio of pmol/min test sample PKA to pmol/min total PKA. PKA activity in triplicate samples was measured and experiments were repeated at least three times.
In another embodiment, PKA assays were performed with a kit from Calbiochem (San Diego, Calif.). Cell lysates were incubated in ELISA plates coated with a PKA peptide substrate, then incubated with anti-phosphoserine antibodies. Bound antibody was detected after incubation with anti-rabbit IgG-horse radish peroxidase. Statistical analyses were performed using Student's t-test.

The test system of test [1] is Human umbilical vein endothelial cells (HUVEC). Briefly: Endothelial cell migration assay (transwell) on ECM substrates. The settings on record: 250 μM dibutyryl cAMP or transient transfection with expression constructs. It counts as cell-based. The method, then: (§1) Human umbilical vein endothelial cells (HUVEC) were grown in Endothelial Growth Medium (containing 2% fetal bovine serum, bFGF and VEGF) (Clonetics, San Diego, Calif.). To render HUVECs quiescent for Rac and/or Rho assays, monolayers of endothelial cells were incubated for 18 hrs in Endothelial Basal Medium supplemented with 0.1% serum (Clonetics). Cell migration and adhesion assays on ECM substrates were performed as previously described in Kim et al. (S. Kim et al., Amer. J. Biol. Chem., 275:33920-33928 (2000); and S. Kim et al., Amer. J. Path., 156:1345-1362 (2000)).
Migration assays were performed essentially as described (Kim, et. al., 2000). […] HUVECS (25,000) were added to the upper chamber of inserts in migration buffer (Hepes buffered M199 medium containing 1% BSA, 2 mM MgCl2, 2 mM CaCl2 and 0.2 mM MnCl2) containing 25 μg/ml of various antibodies. In some experiments, 250 μM dibutyryl cAMP was placed in the upper and lower chambers of the transwell. Cells were allowed to migrate from the upper to the lower chamber for four hours at 37° C. The number of cells which had migrated were counted in three representative high power (200×) fields per insert. The data are presented as number of cells migrating+/−standard error of the mean. Migration assays were similarly performed on transfected cells. In this case, migrated transfected cells were identified by fluorescent microscopy and counted.

Test [2] has the same test system. Briefly: Cell adhesion (attachment) assay on ECM substrates. The test is classed as cell-based. Particulars: cAMP treatment or PKA catalytic subunit transfection. The method, then: as §1
Another test concerns HUVECS. The test can be described thus: Time lapse videomicroscopy of migrating endothelial cells. It counts as cell-based, human. Particulars: 500 μM dibutyryl-cAMP, vitronectin. The method, then: 2.5-cm-diameter glass coverslips were coated with 5 μg/ml vitronectin for 1 hour at 37° C., then blocked with 3% bovine serum albumin for 2 hours. HUVECs were removed from culture dishes by trypsizination, and plated on coverslips for 48 hours. Coverslips were then placed on the microscope stage (Zeiss, Oberkochen, Germany) connected to a Charged Coupled Device (CCD) camera and viewed at a 200× magnification in bright field. Cells on the coverslips were kept at 37° C. with 5% CO2, bathed in culture media with 20 mM HEPES (pH7.4). Images were recorded using IP Lab software (Webster, N.Y.) at 1-minute intervals for 60 minutes. Dibutyryl-cAMP was then directly added into the culture medium at concentration of 500 μM. Images of cells were then recorded for an additional 60 minutes at 1-minute intervals. Cell shape and migration distance changes were quantified using IMAQ Vision Builder software (National Instruments Corporation, Austin, Tex.). Cell shape and nuclear positions were measured at 10-minute time points. Ellipse Ratio was used as a parameter for polarity. As cell shape approaches a circle, the Ellipse Ratio approaches the number one. Distance migrated was determined by measuring the distance nuclei moved in ten minute intervals. […] Images were recorded using IP Lab Spectrum software (Webster, N.Y.) at 1-minute intervals for 60 minutes. […]

[3] abbreviates: after stimulation of endothelial cells.

As for `CCCC(=O)Nc1ncnc2c1ncn2[C@@H]1O[C@@H]2COP(=O)(O)O[C@H]2[C@H]1OC(=O)CCC` [dibutyryl cAMP], the “PKA activity in endothelial cells” value in the test with protein kinase A was “rapidly stimulate PKA activity in endothelial cells”. Also, the “PKA activity in endothelial cells” value in the test on protein kinase A (listed as cell permeable cAMP) is given as “activates PKA”. Moreover, in the test on protein kinase A (setting [3]), the “time at which PKA activation is detected” value was determined as 2 min and the “time of maximal PKA activity” value is 15 min. Also, the “endothelial cell migration on vitronectin” value in test [1] is recorded as “quantitatively inhibits endothelial cell migration”. The “cell attachment to vitronectin” value in test [2] is listed as “enhanced cell attachment to vitronectin”. In the test with HUVECS, the “cell shape (polarity)” value is “rapidly induces a flattening of the cell shape” and the “endothelial cell migration (distance moved by nuclei)” value is given as “rapidly inhibits endothelial cell migration”.
